Laboratory results published in ChEMBL document CHEMBL1156740, “A bivalent ligand (KMN-21) antagonist for mu/kappa heterodimeric opioid receptors” (Bioorg Med Chem Lett, 2009).
The source made the active and inactive calls.

Experiments:
Type in all cases: functional, cell-based
[1] = target: T1, Opioid receptors; mu & kappa (Homo sapiens) (UniProt P41145+P35372); assay: Antagonistic activity at mu/kappa opioid receptor expressed in HEK293 cells co-transfected with chimeric G-protein delta 6-Gqi4-myr assessed as inhibition of DAMGO-induced calcium release at 1 uM
[2] = target: T1, Opioid receptors; mu & kappa (Homo sapiens); assay: Antagonistic activity at mu/kappa opioid receptor expressed in HEK293 cells co-transfected with chimeric G-protein delta 6-Gqi4-myr assessed as inhibition of U69593-induced calcium release at 1 uM
[3] = target: Kappa-type opioid receptor (Homo sapiens) (UniProt P41145); assay: Antagonistic activity at kappa opioid receptor expressed in HEK293 cells co-transfected with chimeric G-protein delta 6-Gqi4-myr assessed as inhibition of U69593-induced calcium release at 1 uM
[4] = target: Mu-type opioid receptor (Homo sapiens) (UniProt P35372); assay: Antagonistic activity at mu opioid receptor expressed in HEK293 cells co-transfected with chimeric G-protein delta 6-Gqi4-myr assessed as inhibition of DAMGO-induced calcium release at 1 uM

Measured: Activity

Kappa-type opioid receptor (Homo sapiens), sequence (P41145 whole entry): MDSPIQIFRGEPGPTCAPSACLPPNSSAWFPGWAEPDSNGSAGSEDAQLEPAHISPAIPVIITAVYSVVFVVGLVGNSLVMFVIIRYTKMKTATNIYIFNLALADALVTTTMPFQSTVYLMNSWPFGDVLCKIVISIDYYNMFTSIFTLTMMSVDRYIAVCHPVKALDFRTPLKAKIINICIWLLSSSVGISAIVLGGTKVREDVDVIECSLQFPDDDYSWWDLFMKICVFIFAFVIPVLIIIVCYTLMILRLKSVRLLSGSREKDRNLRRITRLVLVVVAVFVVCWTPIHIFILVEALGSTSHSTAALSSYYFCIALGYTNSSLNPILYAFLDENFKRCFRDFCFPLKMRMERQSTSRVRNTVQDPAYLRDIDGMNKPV
Mu-type opioid receptor (Homo sapiens), sequence (P35372 whole entry): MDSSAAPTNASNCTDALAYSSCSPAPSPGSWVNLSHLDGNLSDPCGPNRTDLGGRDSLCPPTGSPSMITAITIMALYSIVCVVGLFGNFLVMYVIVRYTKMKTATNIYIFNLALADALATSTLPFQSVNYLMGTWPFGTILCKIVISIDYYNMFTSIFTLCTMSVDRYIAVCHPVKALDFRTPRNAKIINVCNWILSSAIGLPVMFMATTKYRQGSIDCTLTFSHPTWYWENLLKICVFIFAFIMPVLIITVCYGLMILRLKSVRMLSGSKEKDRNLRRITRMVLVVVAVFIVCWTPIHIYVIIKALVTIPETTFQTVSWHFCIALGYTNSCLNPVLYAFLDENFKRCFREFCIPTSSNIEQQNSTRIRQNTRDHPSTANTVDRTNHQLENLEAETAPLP
T1 sequence (P35372 whole entry, looked up): as the sequence (P35372 whole entry) above
T1 sequence (P41145 whole entry, looked up): as the sequence (P41145 whole entry) above

N=C(NCCNC(=O)CNC(=O)CNC(=O)CCC(=O)NCC(=O)NCC(=O)N[C@H]1C[C@@H]2Oc3c(O)ccc4c3[C@@]23CCN(CC2CC2)[C@H](C4)[C@]3(O)C1)Nc1ccc2[nH]c3c(c2c1)C[C@@]1(O)[C@H]2Cc4ccc(O)c5c4[C@@]1(CCN2CC1CC1)[C@H]3O5
active: all assays above

N=C(NCCCCCNC(=O)CNC(=O)CNC(=O)CCC(=O)NCC(=O)NCC(=O)N[C@H]1C[C@@H]2Oc3c(O)ccc4c3[C@@]23CCN(CC2CC2)[C@H](C4)[C@]3(O)C1)Nc1ccc2[nH]c3c(c2c1)C[C@@]1(O)[C@H]2Cc4ccc(O)c5c4[C@@]1(CCN2CC1CC1)[C@H]3O5
active: all assays above

N=C(NCCCCNC(=O)CNC(=O)CNC(=O)CCC(=O)NCC(=O)NCC(=O)N[C@H]1C[C@@H]2Oc3c(O)ccc4c3[C@@]23CCN(CC2CC2)[C@H](C4)[C@]3(O)C1)Nc1ccc2[nH]c3c(c2c1)C[C@@]1(O)[C@H]2Cc4ccc(O)c5c4[C@@]1(CCN2CC1CC1)[C@H]3O5
active: all assays above

N=C(NCCCNC(=O)CNC(=O)CNC(=O)CCC(=O)NCC(=O)NCC(=O)N[C@H]1C[C@@H]2Oc3c(O)ccc4c3[C@@]23CCN(CC2CC2)[C@H](C4)[C@]3(O)C1)Nc1ccc2[nH]c3c(c2c1)C[C@@]1(O)[C@H]2Cc4ccc(O)c5c4[C@@]1(CCN2CC1CC1)[C@H]3O5
active: all assays above
